System: GP2D cell subcutaneously transplanted tumors
Test: In vivo pharmacodynamic experiment of GP2D tumor model
Parameters: species or system Balb/c Nude mice
Conditions: p.o., BID, 28 days of administration
Description: In vivo pharmacodynamics of GP2D cell subcutaneously transplanted tumors in Balb/c Nude mice model with human colon cancer
Cell culture: Human colon cancer GP2D cells were cultured in monolayer in vitro. The culture conditions were DMEM/F12 medium+20% fetal bovine serum, and cultured in a 37° C., 5% carbon dioxide incubator. Routine digestion with trypsin-EDTA was performed twice a week for passaging. When the cell saturation reached 80% to 90% and the required quantity was reached, the cells were harvested, counted, resuspended in an appropriate amount of PBS, and mixed with matrigel at a ratio of 1:1 to obtain a cell suspension with a cell density of 25×10^6 cells/mL.
Cell inoculation: 0.2 mL (5×10^6 cells/mouse) of GP2D cells (added with Matrigel with a volume ratio of 1:1) were subcutaneously inoculated into the right back of each mouse. […]
Tumor diameters were measured twice a week with a vernier caliper. […]
The tumor inhibitory efficacy of the compound was evaluated by TGI (%) or relative tumor proliferation rate T/C (%). […] The relative tumor volume (RTV) was calculated based on the results of tumor measurements. The calculation formula is RTV=Vt/V0, where V0 is the average tumor volume measured at the beginning of administration in groups (i.e., D0), and Vt is the average tumor volume measured at a certain measurement. […]

Question: Which TGI (30 mpk) does the source give for `C#Cc1c(F)ccc2cc(N)cc(-c3ncc4c(N5CC6CCC(C5)N6)nc(OC[C@@]56CC(=C)CN5C[C@@H]5C[C@@H]56)nc4c3F)c12` (single isomer, unassigned) [Compound 3] here?
Answer: Its TGI is 85.57%.

Question: And the TGI (100 mpk)?
Answer: The TGI was 98.95%.
